Assay results published in patent US20100291225A1, “Stabilized Sustained Release Composition of Bupropion Hydrochloride and Process For Preparing the Same” (priority 2008, published 2010).

Settings: in vivo, po, 150 mg
Method: This example describes an in-vivo study, which measured plasma concentrations of bupropion achieved after oral administration of reference Wellbutrin® SR tablet and test bupropion hydrochloride sustained release tablets of example 1. The in-vivo study was carried out on 12+2 standby healthy adult subjects under fasting conditions. Plasma bupropion was determined over a 120 hour period, after single oral administration of the respective formulations. Each subject was administered each of the two formulations in cross over design separated by a washout period of 14 days between administrations of the two formulations. Plasma levels were measured at predetermined times utilizing a validated assay method employing LC-MS/MS instrumentation. Plasma pharmacokinetic parameters were evaluated using commercially available software WinNonlin version 5.0.1 or higher. The statistical analysis was performed using SAS® package (SAS® Institute Inc., USA version 9.1 or higher). Values derived at each time point and to determine the area under the curve (AUC) and maximum concentration (Cmax) afforded by Wellbutrin®SR and the test formulation.

AUC0-t: 894.88 ngh/ml
AUC0-α: 951.251 ngh/ml
Cmax: 111.178 ng/mL
Structure (SMILES): CC(NC(C)(C)C)C(=O)c1cccc(Cl)c1 (stereo not drawn) [Wellbutrin ®SR]
